In patent US20250346634A1, “CYCLIC PEPTIDES FOR TARGETING EPIDERMAL GROWTH FACTOR RECEPTOR AND MUTATIONS THEREOF FOR DRUG DELIVERY” (priority 2022, published 2025):
Like-named read-outs stand apart in the source and are kept apart here. Bridge positions count the residues as written; N and C are the ends. Square brackets hold non-standard residues; d marks the D form. Peptide text beside a SMILES is read from it. * marks the point of attachment. Camptothecin(20S-OCO) = CC[C@@]1(OC(=O)*)C(=O)OCc2c1cc1n(c2=O)Cc2cc3ccccc3nc2-1; FITC = O=C1OC2(c3ccc(O)cc3Oc3cc(O)ccc32)c2ccc(NC(=S)*)cc21; Abu = CC[C@H](N)C(=O)O; GABA = NCCCC(=O)O

Columns and labels:
[1] = Stability of peptide-drug conjugates in complete growth medium (LC-MS); format: in vitro ADME; details: RPMI and DMEM complete growth medium, 37° C., read-out: half-life of degradation
Experimental: At each time point, 10 μl of sample was taken and mixed with 25 μl ACN/H2O (1:1, v.v.). The samples were centrifuged at 1,400 rpm for 15 min. Supernatants were collected, filtered and analyzed by liquid chromatography mass spectrometry (LC-MS).
The stability of P6-CPT and P9-CPT was measured in RPMI and DMEM complete growth medium at 37° C. for 0 h, 0.5 h, 3 h, 7 h, 24 h, 48, and 72 h. The degradation of the conjugates and the CPT release was analyzed by LC-MS. The stability of these conjugates and drug release rates were similar.

H1299 cells = assay: XTT cytotoxicity assay on H1299 cells; format: cell-based
Experimental: (§1) Cell growth in the presence of PDCs was measured by a commercial XTT assay kit (Cell Proliferation Kit, XTT based; Biological Industries, Israel). The cells (10^4 cells/well) were seeded in 96 well plates and incubated overnight in complete growth medium. The cells were washed and then cultured in 100 μl of new medium containing various concentrations of drug or peptides, for 24 h, 48 h, and 72 h. The XTT solution was added to each well and the plate was further incubated 2-3 h at 37° C. The optical density in the wells was measured at both 480 nm and 680 nm using a TECAN Infinite M200 ELISA reader. All the tests were done in triplicates, and each experiment was repeated three times.
(§2) The cytotoxicity of the Peptide-Drug conjugates (PDCs) was tested in a range of concentrations (0.5-50 μM) against H1299 and DKMG cells using two protocols. In the first protocol, cells were pre-incubated with P6, P9, P6-CPT, and P9-CPT for 6 hours, the medium was removed, and a fresh, drug-free complete medium was added for additional 24 h (designated as 6h24h) or 48 h (6h48h). In the second protocol, cells were exposed continuously to PDCs for 24 h, 48 h, and 72 hours.

[2] = test system: H1299, H1975 and DKMG cells; assay: Phage display biopanning with NGS, selection of EGFR-specific peptides; format: cell-based; details: 3 rounds of biopanning, K562-derived sequences excluded
Experimental: A heptapeptide phage display library (Ph.D.-C7C Phage Display Library Kit, New England Biolabs, USA) was used for the in vitro biopanning experiments. All cell lines were individually incubated with phages from the stock library. […] Adherent cells (H1299, […] and DKMG) were plated at a density of 10^5 cells/ml in a 6-well plate. When the culture reached 80% confluence, the first well was incubated with phage library (10^11 pfu/10 μl) for 1 h at 37° C. with gentle stirring. The medium containing unbound phage was collected and transferred to the second, similar well and incubated again. The procedure was repeated with the third well. Cells in the third wells were washed four times with 0.5% Tween-20 in PBS. Then, 0.5 ml of elution buffer (0.2 M glycine-HCl, pH 2.2) was added and incubated for 10 min at 4° C.; the pH was neutralized by addition of 75 μl of 1 M Tris-HCl buffer, pH 9.0. The supernatant containing cell surface binding phage was collected. The cells were then lysed by incubation for 1 h at 4° C. with 2 ml of 30 mM Tris-HCl and 1 mM EDTA, pH 8.0. The medium was collected and centrifuged at 1,500 rpm for 5 min and the supernatant containing cell-internalized phage was transferred to a new tube. The internalized and surface-bound phages were amplified according to the manufacturer's instructions. An aliquot of the phages was retained for sequencing (see below) and the remainder was subjected to two additional rounds of biopanning. […]
Finally, two groups of peptides were constructed; the first included sequences that were present in all three EGFR+ve cell lines and included about 416 sequences; the second was divided into three subgroups, one for each cell line, wherein the subgroup for H1299 included some 1666 sequences, the subgroup for H1975 included some 10437 sequences, the subgroup for DKMG included some 981 sequences. From this list, top eleven S—S bridged cyclic peptides sequences were selected by their count in the sequencing data (the highest number of reads). […]

DKMG cells = assay: XTT cytotoxicity assay on DKMG cells; format: cell-based
Experimental: as §1, §2

[3] = test system: EGFR+ve cells (H1299, DKMG) versus K562 cells; assay: Flow cytometry internalization of peptide-FITC conjugates; format: cell-based; details: 2.5 μM FITC-labeled peptide
From the text: Analysis was done with FACS cell analyzer.

[4] = test system: H1299, DKMG and K562 cells; assay: Flow cytometry binding of peptide-FITC conjugates; format: cell-based; details: 2.5 μM FITC-labeled peptide
Experimental: Cells with 80-90% confluence were incubated with 2.5 μM FITC-conjugated peptides in RPMI-5% FBS for 1 h at 37° C. Cells were scrapped from the culture flask and washed twice with 2 ml FCSB.
This concentration was chosen based on preliminary dose dependence study.

[5] = test system: H1299 tumor (EGFR positive) versus K562 tumor (EGFR negative); assay: In vivo targeting in mice with dual H1299 and K562 xenografts; details: nude mice, tail vein, 100 μg
Experimental: Animal protocols were approved by the Institutional Animal Care and Use Committee at Ariel university Israel. Nude mice were injected with either H1299 cells in the right flank and with K562 cells in the left flank, so that each mouse bore either dual H1299 and K562 xenografts. When tumors reached, 100 mm^3 mice were injected via tail vein with 100 μg of FITC-labeled cyclic peptide, according to some embodiments of the present invention, and imaged using IVIS® SpectrumCT 8- and 24-hours post injection. Immediately afterwards, the mice were sacrificed for ex vivo imaging of organs.
Signal from the targeted tumor compared to other tissues was determined for each animal.

[6] = target: T1, EGFR variant III (EGFRvIII), on DKMG glioblastoma cells (human, UniProt P00533 25-1210); assay: flow cytometry, 2.5 uM FITC-peptide on DKMG cells (EGFR WT and EGFRvIII)
T1 construct: whole, on cells; DKMG cells express both wild type EGFR (92% of cells) and EGFRvIII (82%); All results on DKMG cells are written against this molecule; also called EGFR mutant; EGFRVIII DKMG

[7] = target: T2, epidermal growth factor receptor (EGFR), wild type (human, UniProt P00533 25-1210); assay: confocal microscopy, 25 uM FITC-peptide, 3 h, H1299 cells
T2 construct: whole, on cells; The target is inferred from tumour cell lines that overexpress EGFR, compared with EGFR-negative cells; No purified receptor was used; also called EGFRWT; EGFR WT

[8] = H1299, 6 w 48 h (6 h pre-incubation, then 48 h drug-free medium)
[9] = H1299, 24 h continuous exposure
[10] = H1299, 48 h continuous exposure
[11] = H1299, first protocol (6 h pre-incubation), up to 48 h
[12] = H1299, second protocol, continuous exposure
[13] = H1299, 72 h continuous exposure

With `CC[C@H](C)[C@@H]1NC(=O)[C@H](Cc2ccc(O)cc2)NC(=O)[C@H](CO)NC(=O)CNC(=O)[C@@H]2CCCN2C(=O)[C@H](C(C)C)NC(=O)[C@H](Cc2cnc[nH]2)NC(=O)[C@@H](NC(=O)CCCNC(=O)O[C@]2(CC)C(=O)OCc3c2cc2n(c3=O)Cc3cc4ccccc4nc3-2)CSSC[C@@H](C(N)=O)NC1=O` [Peptide P6-CPT] ({Camptothecin(20S-OCO)-GABA}-CHVPGSYIC-NH2; disulfide 1-9) the half-life [1] was 6 to 7 h, the IC50 (H1299 cells; [8]) was 32 µM and the IC50 (H1299 cells; [9]) was 14.5 µM. The IC50 (H1299 cells; [10]) was 5.5 µM, the cytotoxicity (H1299 cells; [11]) was “exhibited cytotoxic effect after 48 h” and the cytotoxicity (H1299 cells; [12]) was “observed after 24 hours post exposure”.

With `CSCC[C@@H]1NC(=O)[C@H](C)NC(=O)[C@H](CC(N)=O)NC(=O)[C@H](C(C)C)NC(=O)[C@@H](N)CSSC[C@@H](C(N)=O)NC(=O)[C@H](Cc2ccc(O)cc2)NC(=O)[C@H](CO)NC(=O)[C@H](CCC(N)=O)NC1=O` [Peptide P9] (H-CVNAMQSYC-NH2; disulfide 1-9) the “Cell line (peptide specificity per cell line; source of the cells from which the peptide was identified)” value [2] was “DKMG”, the IC50 (DKMG cells; 24 h continuous exposure) was 16.4 ± 1.9 µM and the IC50 (DKMG cells; 48 h continuous exposure) was 17.5 ± 2.3 µM. The IC50 (DKMG cells; 72 h continuous exposure) was 17.5 ± 1.6 µM, the cytotoxicity (H1299 cells) was “did not demonstrate cytotoxicity” and the IC50 (H1299 cells; [9]) was 22.3 ± 0.2 µM. For the same molecule, the IC50 (H1299 cells; [10]) was 27.3 ± 1.7 µM and the IC50 (H1299 cells; [13]) was 22.5 µM.

Molecule `CC[C@@H]1NC(=O)[C@@H](NC(=O)CCCNC(=O)O[C@]2(CC)C(=O)OCc3c2cc2n(c3=O)Cc3cc4ccccc4nc3-2)CSSC[C@@H](C(N)=O)NC(=O)[C@H](Cc2ccc(O)cc2)NC(=O)[C@H](CO)NC(=O)[C@H](CCC(N)=O)NC(=O)[C@H](CCSC)NC(=O)[C@H](C)NC(=O)[C@H](CC(N)=O)NC1=O` [Peptide P9-CPT] ({Camptothecin(20S-OCO)-GABA}-C[Abu]NAMQSYC-NH2; disulfide 1-9) has a half-life [1] of 6 to 7 h, an IC50 (DKMG cells; 6 w 48 h (6 h pre-incubation, then 48 h drug-free medium)) of 32 ± 1.6 µM and an IC50 (DKMG cells; 24 h continuous exposure) of 6.76 µM. For the same molecule, the IC50 (DKMG cells; 48 h continuous exposure) was 2.7 ± 1 µM, the IC50 (DKMG cells; 72 h continuous exposure) was 0.2 ± 0.1 µM and the cytotoxic effect (DKMG cells; first protocol) was “noted after 48 hours”. For the same molecule, the “IC50 concentration higher compared to the free CPT” value (DKMG cells; first protocol, 48 hours) was 4 fold, the IC50 (H1299 cells; [8]) was 21.5 ± 2.1 µM and the IC50 (H1299 cells; [9]) was 8.4 ± 0.5 µM. For the same molecule, the IC50 (H1299 cells; [10]) was 2.2 ± 0.3 µM, the IC50 (H1299 cells; [13]) was 1.2 ± 0.1 µM and the cytotoxicity (H1299 cells; [11]) was “exhibited cytotoxic effect after 48 h”. For the same molecule, the cytotoxicity (H1299 cells; [12]) was “observed after 24 hours post exposure”.

In the case of `C[C@@H]1NC(=O)[C@@H](NC(=O)CCCNC(=S)Nc2ccc3c(c2)C(=O)OC32c3ccc(O)cc3Oc3cc(O)ccc32)CSSC[C@@H](C(N)=O)NC(=O)[C@H](CCCNC(=N)N)NC(=O)CNC(=O)[C@@H]2CCCN2C(=O)[C@H]([C@@H](C)O)NC(=O)[C@H](Cc2ccc(O)cc2)NC(=O)[C@H](CCC(N)=O)NC1=O` [FITC-labeled P11] ({FITC-GABA}-CAQYTPGRC-NH2; disulfide 1-9), the “internalization (flow cytometry)” value [3] is reported as “internalized only into to EGFR+ve cells”, the “binding (flow cytometry)” value [4] is reported as “bind to H1299 and DKMG selectively but not to K562 cells” and the “accumulation in other organs” value ([5]; ex vivo imaging of organs) is reported as “No significant accumulation”. The tumor accumulation ([5]; imaging 8 and 24 hours post injection) was “accumulates in the H1299 tumor compared to the K562 tumor”.

B1: FITC-labeled cyclic peptide P6, c(CHVPGSYIC) (peptide)
peptide: {FITC-GABA}-CHVPGSYIC-NH2
modifications: disulfide 1-9
SMILES: CC[C@H](C)[C@@H]1NC(=O)[C@H](Cc2ccc(O)cc2)NC(=O)[C@H](CO)NC(=O)CNC(=O)[C@@H]2CCCN2C(=O)[C@H](C(C)C)NC(=O)[C@H](Cc2c[nH]cn2)NC(=O)[C@@H](NC(=O)CCCNC(=S)Nc2ccc3c(c2)C(=O)OC32c3ccc(O)cc3Oc3cc(O)ccc32)CSSC[C@@H](C(N)=O)NC1=O
notes: also called FITC-P6; P6-FITC conjugate
B1: binds [6]; binds [7].
